Data reported in patent US20220323406A1, “METHODS AND COMPOSITIONS FOR DIFFERENTIATING STEM CELLS” (Massachusetts Institute of Technology, priority 2019, published 2022).

Tests used:
[1] = system: ENR+CD organoids (ISC to Paneth cell differentiation); test: Primary screen: CCh-stimulated lysozyme secretion LYZ.S, 2.5-D 384-well ENR+CD organoid differentiation; type: cell-based, mouse; conditions: primary screen
Description: (§1) High-throughput screening.

[2] = system: ENR+CD organoids (ISC to Paneth cell differentiation); test: Primary screen: basal (non-stimulated) lysozyme secretion LYZ.NS, 2.5-D 384-well ENR+CD organoid differentiation; type: cell-based, mouse; conditions: primary screen; for Z.LYZ.NS: standard z score
Description: as §1

ENR+CD organoids = test: Primary screen: ATP (CellTiter-Glo 3D, CTG) cell number/viability, 2.5-D 384-well ENR+CD organoids; conditions: primary screen; for Z.CTG: standard z score;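 as to all read-outs here: compounds given at plating and again on day 3 over a 6-day differentiation from ENR+CV stem-cell-enriched precursors, ATP measured on day 6, plate median as control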

| Structure (SMILES) | Dose.FC.LYZ.S ([1]; dose 0.08 uM) | Dose.FC.LYZ.S ([1]; dose 0.40 uM) | Dose.FC.LYZ.S ([1]; dose 2.00 uM) | Dose.FC.LYZ.S ([1]; dose 10.00 uM) | Dose.FC.LYZ.NS ([2]; dose 0.08 uM) | Dose.FC.LYZ.NS ([2]; dose 0.40 uM) | Dose.FC.LYZ.NS ([2]; dose 2.00 uM) | Dose.FC.LYZ.NS ([2]; dose 10.00 uM) | Z.LYZ.NS ([2]; dose 0.08 uM) | Z.LYZ.NS ([2]; dose 0.40 uM) | Z.LYZ.NS ([2]; dose 2.00 uM) | Z.LYZ.NS ([2]; dose 10.00 uM) | Dose.FC.CTG (ENR+CD organoids; dose 0.08 uM) | Dose.FC.CTG (ENR+CD organoids; dose 0.40 uM) | Dose.FC.CTG (ENR+CD organoids; dose 2.00 uM) | Dose.FC.CTG (ENR+CD organoids; dose 10.00 uM) | Z.CTG (ENR+CD organoids; dose 0.08 uM) | Z.CTG (ENR+CD organoids; dose 0.40 uM) | Z.CTG (ENR+CD organoids; dose 2.00 uM) | Z.CTG (ENR+CD organoids; dose 10.00 uM) | further results |
| --- | --- | --- | --- | --- | --- | --- | --- | --- | --- | --- | --- | --- | --- | --- | --- | --- | --- | --- | --- | --- | --- |
| Fc1cc(F)c2c(c1)[C@H]1C=CC[C@H]1C(c1cccnc1)N2 (mixture of isomers) [Golgicide A] | – | – | – | – | – | – | – | – | – | – | – | – | – | – | – | – | – | – | – | – | Dose.FC.LYZ.S (log2 fold change) ([1]; dose 0.08 uM): 0.146; Dose.FC.LYZ.S (log2 fold change) ([1]; dose 0.40 uM): 0.202; Dose.FC.LYZ.S (log2 fold change) ([1]; dose 2.00 uM): 0.076; Dose.FC.LYZ.S (log2 fold change) ([1]; dose 10.00 uM): −0.256; Dose.FC.LYZ.NS (log2 fold change) ([2]; dose 0.08 uM): 0.267; Z.LYZ.NS (standard z score) ([2]; dose 0.08 uM): 2.325; Dose.FC.LYZ.NS (log2 fold change) ([2]; dose 0.40 uM): 0.066; Z.LYZ.NS (standard z score) ([2]; dose 0.40 uM): 0.576; Dose.FC.LYZ.NS (log2 fold change) ([2]; dose 2.00 uM): 0.171; Z.LYZ.NS (standard z score) ([2]; dose 2.00 uM): 1.492; Dose.FC.LYZ.NS (log2 fold change) ([2]; dose 10.00 uM): −0.161; Z.LYZ.NS (standard z score) ([2]; dose 10.00 uM): −1.402; Dose.FC.CTG (log2 fold change) (ENR+CD organoids; dose 0.08 uM): 0.167; Z.CTG (standard z score) (ENR+CD organoids; dose 0.08 uM): 0.398; Dose.FC.CTG (log2 fold change) (ENR+CD organoids; dose 0.40 uM): 0.227; Z.CTG (standard z score) (ENR+CD organoids; dose 0.40 uM): 0.541; Dose.FC.CTG (log2 fold change) (ENR+CD organoids; dose 2.00 uM): 0.339; Z.CTG (standard z score) (ENR+CD organoids; dose 2.00 uM): 0.810; Dose.FC.CTG (log2 fold change) (ENR+CD organoids; dose 10.00 uM): −0.220; Z.CTG (standard z score) (ENR+CD organoids; dose 10.00 uM): −0.526 |
| Cc1ccc2c(=O)c3cccc(CC(=O)O)c3oc2c1C [DMXAA (Vadimezan)] | −0.091 log2 fold change | −0.009 log2 fold change | −0.094 log2 fold change | −0.118 log2 fold change | −0.007 log2 fold change | −0.036 log2 fold change | −0.038 log2 fold change | −0.031 log2 fold change | −0.065 | −0.317 | −0.334 | −0.271 | −0.568 log2 fold change | −0.629 log2 fold change | −0.477 log2 fold change | −0.230 log2 fold change | −1.357 | −1.502 | −1.139 | −0.550 | – |
| Cc1[nH]c2ccccc2c1CCNC(=O)c1cccs1 [CK-636] | 0.080 log2 fold change | −0.013 log2 fold change | 0.072 log2 fold change | −0.103 log2 fold change | 0.039 log2 fold change | −0.049 log2 fold change | −0.066 log2 fold change | −0.108 log2 fold change | 0.336 | −0.427 | −0.573 | −0.944 | 0.202 log2 fold change | −0.004 log2 fold change | −0.201 log2 fold change | −0.169 log2 fold change | 0.483 | −0.010 | −0.479 | −0.404 | – |
| COc1ccc2nc([S@@+]([O-])Cc3ncc(C)c(OC)c3C)[nH]c2c1 [Esomeprazole Sodium] | 0.146 log2 fold change | 0.174 log2 fold change | 0.043 log2 fold change | 0.021 log2 fold change | 0.086 log2 fold change | 0.233 log2 fold change | 0.034 log2 fold change | −0.016 log2 fold change | 0.747 | 2.030 | 0.300 | −0.139 | 0.288 log2 fold change | 0.199 log2 fold change | 0.386 log2 fold change | 0.271 log2 fold change | – | – | – | – | – |
